Laboratory results as given in patent publication EP0073276A1, “A method of increasing the feed efficiency of animals, and compositions for use in such a method” (RORER INTERNATIONAL (OVERSEAS) INC., priority 1981, dated 1983).

How the values were obtained:
Type in all cases: in vivo
poultry = assay: Feed efficiency studies on poultry under strict laboratory conditions; conditions: disease and parasite-free environment, relative to control animals
Description: Studies on poultry conducted under strict laboratory conditions, that is, in a disease and parasitt -free environment, indicate that the administration of feed efficiency agents, such as the amidinoureas defined in formulae I-VI and in particular 1-(2,6-dimethylphenyl)-3-methylamidinourea, results in an increase in the feed conversion ratio and weight gain of the treated animal relative to that of the control animals. The % improvement in the feed conversion ratio in the treated animals as compared with the controls is expressed by: • Body Weight Gain of Body Weight Gain of [formula]

[1] = test system: Swiss-Webster male mice or Sprague-Dawley male rats; assay: Charcoal motility (intestinal transit of a charcoal suspension); conditions: oral dose 4 mg/kg, 30 minutes before charcoal; sacrificed 30 minutes after charcoal; species (mice or rats) not given
Procedure: A charcoal suspension (10 cm /kg of a 10% suspension of activated charcoal, U.S.P. in 0.5% methylcellulose) is given orally either to groups of 10 Swiss-Webster male mice (18-22 g, Taconic Farms) or groups of 5 Sprague-Dawley male rats (120-140 g, Charles River Breeding Labs., Inc.) 30 minutes after an oral dose of drug or control. The animals are sacrificied 30 minutes after receiving the charcoal and the intestines are carefully removed without stretching and placed lengthwise on moist paper. The length of the intestine (pyloric sphincter to caecum) and the distance travelled by the charcoal as a fraction of that length are evaluated for each animal and group means are compared and expressed as percentage inhibition; [formula] For estimation of the duration of inhibition, the interval between dosing with drug and the administration of charcoal is varied from 30 minutes to 6 hours.

Male Sprague-Dawley rats = assay: Gastric emptying test (Amberlite pellet retention in the stomach); conditions: Rattus norvegicus, 30 minutes before 30 pellets, pellets counted four hours later; for inhibition at 10 mg/kg: oral dose 10 mg/kg; for inhibition at 0.25 mg/kg: oral dose 0.25 mg/kg; for inhibition at 0.5 mg/kg: oral dose 0.5 mg/kg
Procedure: The gastric emptying test is performed essentially as described by Brodie in Gastroenterology 50, 45-50 (1966). Male Sprague-Dawley rats (groups of five) are dosed orally with the test compounds or controls 30 minutes before the oral administration of 30 Amerlite pellets (Rohm & Haas Amberlite IRA-93, 1 mm diameter) suspended in 1 cm3 distilled water. The animals are killed with pentobarbital four hours after the pellets are given; the stomachs are removed and the number of pellets remaining in the stomach counted. The control group is compared to the drug treated group using the following formula: %retention = [(mean drug- treated) - (mean control) / 30-(mean control)] X 100.

## CNC(=N)NC(=O)Nc1c(C)cccc1C [1-(2,6-dimethylphenyl)-3-methylamidinourea]
poultry
  feed conversion ratio: increase
  weight gain: increase

## N=C(N)NC(=O)Nc1c(Br)cccc1Br [R'=Br, R"=Br, Rm=H, R6=H, R1=H]
[1]
  inhibition at 4 mg/kg: 91%

## Cc1cccc(Br)c1NC(=O)NC(=N)N [R'=Br, R"=CH3, Rm=H, R6=H, R1=H]
[1]
  inhibition at 4 mg/kg: 89%

## CNC(=N)NC(=O)Nc1c(C)ccc(Br)c1C [R'=CH3, R"=CH3, Rm=3Br, R6=H, R1=CH3]
[1]
  inhibition at 4 mg/kg: 22%

## Cc1cc(C)c(NC(=O)NC(=N)N)c(C)c1 [R'=CH3, R"=CH3, Rm=4-CH3, R6=H, R1=H]
Male Sprague-Dawley rats
  inhibition at 10 mg/kg: 45%

## CCCNC(=N)NC(=O)Nc1c(C)cc(C)cc1C [R'=CH3, R"=CH3, Rm=4-CH3, R6=H, R1=n-Pr]
[1]
  inhibition at 4 mg/kg: 15%

## Cc1cccc(C)c1N(C)C(=O)NC(=N)N [R'=CH3, R"=CH3, Rm=H, R6=CH3, R1=H]
Male Sprague-Dawley rats; oral dose 2 mg/kg
  inhibition at 2 mg/kg: 55%

## Cc1cccc(C)c1NC(=O)NC(=N)N [R'=CH3, R"=CH3, Rm=H, R6=H, R1=H]
Male Sprague-Dawley rats
  inhibition at 0.25 mg/kg: 55%

## CCCCN(C(=O)NC(=N)N)c1c(C)cccc1C [R'=CH3, R"=CH3, Rm=H, R6=n-Bu, R1=H]
[1]
  inhibition at 4 mg/kg: 72%

## Cc1cc(Cl)ccc1NC(=O)NC(=N)N [R'=CH3, R"=H, Rm=4-Cl, R6=H, R1=H]
Male Sprague-Dawley rats
  inhibition at 10 mg/kg: 28%

## CNC(=N)NC(=O)Nc1ccccc1C [R'=CH3, R"=H, Rm=H, R6=H, R1=CH3]
[1]
  inhibition at 4 mg/kg: 11%

## Cc1ccccc1NC(=O)NC(=N)N [R'=CH3, R"=H, Rm=H, R6=H, R1=H]
Male Sprague-Dawley rats
  inhibition at 10 mg/kg: 54%

## Cc1cccc([N+](=O)[O-])c1NC(=O)NC(=N)N [R'=CH3, R"=NO2, Rm=H, R6=H, R1=H]
[1]
  inhibition at 4 mg/kg: 82%

## Cc1cccc(Cl)c1N(C)C(=O)NC(=N)N [R'=Cl, R"=CH3, Rm=H, R6=CH3, R1=H]
[1]
  inhibition at 4 mg/kg: 82%

## Cc1cccc(Cl)c1NC(=O)NC(=N)N [R'=Cl, R"=CH3, Rm=H, R6=H, R1=H]
Male Sprague-Dawley rats
  inhibition at 0.25 mg/kg: 43%

## N=C(N)NC(=O)Nc1c(Cl)cc(Br)cc1Cl [R'=Cl, R"=Cl, Rm=4Br, R6=H, R1=H]
Male Sprague-Dawley rats; oral dose 40 mg/kg
  inhibition at 40 mg/kg: 54%

## N=C(N)NC(=O)Nc1c(Cl)cccc1Cl [R'=Cl, R"=Cl, Rm=H, R6=H, R1=H]
Male Sprague-Dawley rats; oral dose 0.125 mg/kg
  inhibition at 0.125 mg/kg: 54%

## N=C(N)NC(=O)Nc1c(F)cccc1Cl [R'=Cl, R"=F, Rm=H, R6=H, R1=H]
Male Sprague-Dawley rats
  inhibition at 0.25 mg/kg: 60%

## Cc1ccc(NC(=O)NC(=N)N)c(Cl)c1 [R'=Cl, R"=H, Rm=4-CH3, R6=H, R1=H]
Male Sprague-Dawley rats
  inhibition at 10 mg/kg: 40%

## N=C(N)NC(=O)Nc1ccc(Cl)cc1Cl [R'=Cl, R"=H, Rm=4-Cl, R6=H, R1=H]
Male Sprague-Dawley rats
  inhibition at 10 mg/kg: 85%

## CCc1cccc(C)c1NC(=O)NC(=N)N [R'=ET, R"=CH3, Rm=H, R6=H, R1=H]
Male Sprague-Dawley rats
  inhibition at 0.5 mg/kg: 30%

## CCc1cccc(CC)c1N(C)C(=O)NC(=N)N [R'=ET, R"=ET, Rm=H, R6=CH3, R1=H]
[1]
  inhibition at 4 mg/kg: 12%

## CCc1cccc(CC)c1NC(=O)NC(=N)N [R'=ET, R"=ET, Rm=H, R6=H, R1=H]
Male Sprague-Dawley rats; oral dose 2.5 mg/kg
  inhibition at 2.5 mg/kg: 83%

## N=C(N)NC(=O)Nc1ccc(Cl)c(Cl)c1 [R'=H, R"=H, Rm=3-Cl 4-Cl, R6=H, R1=H]
Male Sprague-Dawley rats
  inhibition at 10 mg/kg: 74%

## CCNC(=N)NC(=O)Nc1ccc(N)cc1 [R'=H, R"=H, Rm=4-NH2, R6=H, R1=ET]
[1]
  inhibition at 4 mg/kg: 20%

## N=C(N)NC(=O)Nc1ccc([N+](=O)[O-])cc1 [R'=H, R"=H, Rm=4NO2, R6=H, R1=H]
Male Sprague-Dawley rats
  inhibition at 10 mg/kg: 59%

## COc1cccc(C)c1NC(=O)NC(=N)N [R'=OCH3, R"=CH3, Rm=H, R6=H, R1=H]
Male Sprague-Dawley rats
  inhibition at 0.5 mg/kg: 70%
